Earlier results as cited in patent publication US20060251720A1, “Localized controlled absorption of statins in the gastrointestinal tract for achieving high blood levels of statins” (priority 2004, published 2006).

Key:
[1] = biological target: T1, HMG-CoA reductase (Homo sapiens, UniProt P04035); conditions: relative to the beta-hydroxy acid form taken as the drug
T1 sequence (P04035 1-888): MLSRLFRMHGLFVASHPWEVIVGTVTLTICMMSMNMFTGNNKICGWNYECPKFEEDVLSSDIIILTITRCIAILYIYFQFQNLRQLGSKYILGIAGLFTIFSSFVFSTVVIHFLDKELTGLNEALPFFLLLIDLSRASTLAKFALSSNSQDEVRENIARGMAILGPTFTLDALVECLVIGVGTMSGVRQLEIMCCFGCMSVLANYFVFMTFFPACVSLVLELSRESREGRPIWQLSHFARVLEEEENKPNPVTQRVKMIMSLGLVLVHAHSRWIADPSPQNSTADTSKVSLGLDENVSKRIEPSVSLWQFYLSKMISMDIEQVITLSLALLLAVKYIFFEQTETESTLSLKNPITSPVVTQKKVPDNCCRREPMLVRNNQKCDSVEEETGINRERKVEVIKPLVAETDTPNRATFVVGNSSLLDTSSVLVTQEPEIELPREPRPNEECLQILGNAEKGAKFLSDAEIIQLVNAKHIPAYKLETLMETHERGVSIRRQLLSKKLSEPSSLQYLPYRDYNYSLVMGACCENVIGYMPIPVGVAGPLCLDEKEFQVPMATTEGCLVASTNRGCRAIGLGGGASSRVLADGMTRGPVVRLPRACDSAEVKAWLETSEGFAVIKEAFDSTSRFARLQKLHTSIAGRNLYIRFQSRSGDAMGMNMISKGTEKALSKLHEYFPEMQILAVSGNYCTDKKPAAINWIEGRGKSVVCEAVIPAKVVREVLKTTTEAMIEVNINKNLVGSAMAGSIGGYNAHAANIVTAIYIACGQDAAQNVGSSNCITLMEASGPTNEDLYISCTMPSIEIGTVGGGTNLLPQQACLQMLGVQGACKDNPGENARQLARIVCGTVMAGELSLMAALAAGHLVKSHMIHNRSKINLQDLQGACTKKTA

[2] = system: plasma proteins, primarily albumin

Row | SMILES | HMG-CoA reductase activity retained [1] | bound to plasma proteins, primarily to albumin [2]
1 | CCC(C)(C)C(=O)OC1CC(C)(O)C=C2C=CC(C)C(CCC3CC(O)CC(=O)O3)C21 (stereo not drawn) [6-beta-hydroxy simvastatin] | ~50% | –
2 | CCC(C)(C)C(=O)O[C@H]1C[C@@H](CO)C=C2C=C[C@H](C)[C@H](CC[C@@H]3C[C@@H](O)CC(=O)O3)[C@H]21 [6-beta-hydroxymethyl simvastatin] | approximately 40% | –
3 | CCC(C)(C)C(=O)O[C@H]1C[C@@H](C)C=C2C=C[C@H](C)[C@H](CC[C@@H]3C[C@@H](O)CC(=O)O3)[C@H]21 [simvastatin] | – | more than 95%
